Source: ChEMBL document CHEMBL4265870, “Synthesis and biological evaluation of a new series of benzimidazole derivatives as antimicrobial, antiquorum-sensing and antitumor agents” (Eur J Med Chem, 2017)
≈ marks a conversion by molar mass, not a printed value. Calls of active or inactive are those of the source. The calls are words filed in the database; no cut-off is given here.

Experiments:
HepG2 = assay: Cytotoxicity in human HepG2 cells assessed as reduction in cell viability by MTT assay; assay type: functional, cell-based
HCT-116 = assay: Cytotoxicity in human HCT116 cells assessed as reduction in cell viability by MTT assay; assay type: functional, cell-based
MCF7 = assay: Cytotoxicity in human MCF7 cells assessed as reduction in cell viability by MTT assay; assay type: functional, cell-based
Ehrlich [1] = assay: Antitumor activity against mouse EAC cells implanted in Swiss mouse assessed as mouse survival time at 0.5 mg/mouse dosed for 9 days starting 1 day after tumor cell implantation (reference value: 14.5 days); assay type: functional
Ehrlich [2] = assay: Antitumor activity against mouse EAC cells implanted in Swiss mouse assessed as increase in life span at 0.5 mg/mouse dosed for 9 days starting 1 day after tumor cell implantation relative to untreated control; assay type: functional
Ehrlich [3] = assay: Antitumor activity against mouse EAC cells implanted in Swiss mouse assessed as tumor volume at 0.5 mg/mouse dosed for 9 days starting 1 day after tumor cell implantation (reference value: 9.85 ml); assay type: functional
Ehrlich [4] = assay: Antitumor activity against mouse EAC cells implanted in Swiss mouse assessed as viable cell count per 100 ul at 0.5 mg/mouse dosed for 9 days starting 1 day after tumor cell implantation (reference value: 83.2 x 10^6/100 ul); assay type: functional
Mus musculus [5] = assay: Toxicity in mouse EAC cells implanted Swiss mouse assessed as hemoglobin level at 0.5 mg/mouse dosed for 9 days starting 1 day after tumor cell implantation (reference value: 8.15 g/dl); assay type: organism-based; conditions: in vivo
Mus musculus [6] = assay: Toxicity in mouse EAC cells implanted Swiss mouse assessed as RBC count at 0.5 mg/mouse dosed for 9 days starting 1 day after tumor cell implantation (reference value: 3.69 10^6/mm3)); assay type: organism-based; conditions: in vivo
Mus musculus [7] = assay: Toxicity in mouse EAC cells implanted Swiss mouse assessed as WBC count at 0.5 mg/mouse dosed for 9 days starting 1 day after tumor cell implantation (reference value: 23.96 10^3/mm3)); assay type: organism-based; conditions: in vivo
WI-38 = assay: Cytotoxicity in human WI38 cells assessed as reduction in cell viability by MTT assay; assay type: cell-based
Escherichia coli = assay: Antimicrobial activity against Escherichia coli by two fold serial dilution method; assay type: functional
Bacillus cereus = assay: Antimicrobial activity against Bacillus cereus by two fold serial dilution method; assay type: functional
Staphylococcus aureus = assay: Antimicrobial activity against Staphylococcus aureus by two fold serial dilution method; assay type: functional
Aspergillus fumigatus = assay: Antimicrobial activity against Aspergillus fumigatus 293 by two fold serial dilution method; assay type: functional; conditions: Af293
[8] = system: Chromobacterium violaceum; assay: Antiquorum-sensing activity against Chromobacterium violaceum ATCC 12472 assessed as reduction in violacein production at 5000 ug/ml a=; assay type: functional
Calf thymus DNA = assay: Binding affinity to calf thymus DNA by TLC plate based assay; assay type: nucleic-acid assay; conditions: Bos taurus

| SMILES | IC50 (HepG2) | IC50 (HCT-116) | IC50 (MCF7) | MST (Ehrlich [1]) | ILS (Ehrlich [2]) | Activity (Ehrlich [3]) | Activity (Ehrlich [4]) | Activity (Mus musculus [5]) | Activity (Mus musculus [6]) | Activity (Mus musculus [7]) | IC50 (WI-38) | MIC (Escherichia coli) | MIC (Bacillus cereus) | MIC (Staphylococcus aureus) | MIC (Aspergillus fumigatus) | diameter of the inhibition zone (DIZ) [8] | Activity (Calf thymus DNA) |
| --- | --- | --- | --- | --- | --- | --- | --- | --- | --- | --- | --- | --- | --- | --- | --- | --- | --- |
| O=c1[nH]cc(F)c(=O)[nH]1 [FLUOROURACIL] | 61 µM | 41 µM | 41.5 µM | 49 days | 237.93% | 1.6 mL | 20.17 ×10⁶ No_unit | 12.96 g/dL | 5.21 ×10⁶ /mm3 | 8.86 ×10³ /mm3 | 51 µM | – | – | – | – | – | – |
| O=[N+]([O-])c1ccc2[nH]c(CNc3nc4ccc(F)cc4s3)nc2c1 | 263 µM | 253 µM | 291 µM | – | – | – | – | – | – | – | – | > 2500 µg/mL | > 2500 µg/mL | > 2500 µg/mL | 1250 µg/mL (≈ 3.64 mM) | 6 mm | – |
| CCOC(=O)c1c(NCc2nc3ccccc3[nH]2)sc2c1CCCCC2 | 43 µM | 31 µM | 40 µM | 39 days | 168.9% | 3.23 mL | 29.65 ×10⁶ No_unit | 12.13 g/dL | 4.89 ×10⁶ /mm3 | 9.11 ×10³ /mm3 | 58 µM | > 2500 µg/mL | > 2500 µg/mL | > 2500 µg/mL | > 2500 µg/mL | 3 mm | inactive |
| O=[N+]([O-])c1ccc2[nH]c(CN3CCN(c4ccc(F)cc4)CC3)nc2c1 | 22 µM | 14 µM | 15 µM | 44.5 days | 206.98% | 2.32 mL | 23.54 ×10⁶ No_unit | 13.15 g/dL | 5.36 ×10⁶ /mm3 | 7.34 ×10³ /mm3 | 298 µM | 2500 µg/mL (≈ 7.03 mM) | 2500 µg/mL (≈ 7.03 mM) | 1250 µg/mL (≈ 3.52 mM) | 2500 µg/mL (≈ 7.03 mM) | <2 mm | Active |
| Cc1c(NCc2nc3ccccc3[nH]2)c(=O)n(-c2ccccc2)n1C | 63 µM | 38 µM | 53 µM | – | – | – | – | – | – | – | – | 2500 µg/mL (≈ 7.5 mM) | 1250 µg/mL (≈ 3.75 mM) | 312 µg/mL (≈ 0.937 mM) | 625 µg/mL (≈ 1.87 mM) | 6 mm | Active |
| COc1ccc2c(c1)CCC/C2=N\NCc1nc2ccccc2[nH]1 | 80 µM | 41 µM | 63 µM | – | – | – | – | – | – | – | – | > 2500 µg/mL | > 2500 µg/mL | 1250 µg/mL (≈ 3.9 mM) | > 2500 µg/mL | <2 mm | – |
| O=[N+]([O-])c1ccc2ncccc2c1NCc1nc2ccccc2[nH]1 | 259 µM | 204 µM | 237 µM | – | – | – | – | – | – | – | – | 625 µg/mL (≈ 1.96 mM) | 156 µg/mL (≈ 0.489 mM) | 1250 µg/mL (≈ 3.91 mM) | 1250 µg/mL (≈ 3.91 mM) | 8 mm | Active |
| O=C1c2ccccc2C(=O)N1NCc1nc2ccccc2[nH]1 | 32 µM | 31 µM | 37 µM | 46.7 days | 222.07% | 2.15 mL | 21.95 ×10⁶ No_unit | 13.21 g/dL | 5.52 ×10⁶ /mm3 | 7.11 ×10³ /mm3 | 322 µM | > 2500 µg/mL | > 2500 µg/mL | > 2500 µg/mL | 1250 µg/mL (≈ 4.28 mM) | 4 mm | Active |
| OC(Cn1cncn1)(Cn1cncn1)c1ccc(F)cc1F [FLUCONAZOLE] | – | – | – | – | – | – | – | – | – | – | – | – | – | – | > 2500 µg/mL | – | – |
| O=[N+]([O-])c1ccc2[nH]c(CNc3c([N+](=O)[O-])ccc4ncccc34)nc2c1 | 265 µM | 256 µM | 274 µM | – | – | – | – | – | – | – | – | 1250 µg/mL (≈ 3.43 mM) | 312 µg/mL (≈ 0.858 mM) | 2500 µg/mL (≈ 6.86 mM) | 2500 µg/mL (≈ 6.86 mM) | 4 mm | Active |
